# Assays:
# [1] = target: T1, human D4.2 receptor (Homo sapiens, UniProt P21917, DEL265-296); assay: Dopamine D4 receptor binding assay ([3H]spiperone); settings: CHO cell membrane expressing human D4.2 receptor; [3H]spiperone 0.5 nM; 27° C., 2 hours
# T1 construct: expressed in transfected cells; host or cells: CHO cells (membrane preparation)
# T1 sequence (P21917 with tags, fused parts or gaps DEL265-296): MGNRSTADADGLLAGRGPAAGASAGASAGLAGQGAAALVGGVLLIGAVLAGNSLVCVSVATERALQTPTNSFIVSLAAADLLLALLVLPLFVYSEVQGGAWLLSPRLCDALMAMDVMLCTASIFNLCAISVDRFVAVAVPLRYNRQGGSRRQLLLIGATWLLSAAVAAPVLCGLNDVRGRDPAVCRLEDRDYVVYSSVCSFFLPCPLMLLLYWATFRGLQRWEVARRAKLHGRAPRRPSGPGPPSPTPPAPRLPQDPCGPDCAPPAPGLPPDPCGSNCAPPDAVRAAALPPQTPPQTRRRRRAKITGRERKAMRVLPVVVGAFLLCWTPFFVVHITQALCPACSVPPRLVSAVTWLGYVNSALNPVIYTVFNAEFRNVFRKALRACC
# Method: 1. Dopamine D4 Receptor Binding Assay
# Chinese hamster ovarium (CHO) cell membrane wherein human D4.2 receptor was expressed was used as a receptor preparation.
# [^3H] spiperone was used as a [^3H]-labeled ligand.
# Human D4.2 receptor binding assay: The (CHO) cell membrane wherein human D4.2 receptor was expressed, [^3H] spiperone (0.5 nM) and each test drug were incubated at 27° C. for 2 hours in 50 mM Tris-hydrochloric acid buffer (pH 7.4) containing 5 mM EDTA, 1.5 mM calcium chloride, 5 mM potassium chloride and 120 mM sodium chloride.
# (§1) After completion of the reaction, the reaction mixture was filtered by suction through a glass filter (GF/B), and radioactivity in the filter paper was measured with a liquid scintillation spectrometer.
# Binding under the reaction of [^3H] spiperone carried out in the presence of 10 μM haloperidol was defined as nonspecific binding of [^3H] spiperone, and the difference between the total binding and the nonspecific binding was defined as specific binding.
# [2] = target: T2, Dopamine D2 receptor (rat striatum membrane) (Rattus norvegicus, UniProt P61169); assay: Dopamine D2 receptor binding assay ([3H]raclopride); settings: [3H]raclopride 1 nM, 25° C., 1 hour
# T2 construct: Rat striatum was homogenized in 50 mM Tris-hydrochloric acid buffer (pH 7.4); from tissue; host or cells: rat striatum
# T2 sequence (P61169 whole entry): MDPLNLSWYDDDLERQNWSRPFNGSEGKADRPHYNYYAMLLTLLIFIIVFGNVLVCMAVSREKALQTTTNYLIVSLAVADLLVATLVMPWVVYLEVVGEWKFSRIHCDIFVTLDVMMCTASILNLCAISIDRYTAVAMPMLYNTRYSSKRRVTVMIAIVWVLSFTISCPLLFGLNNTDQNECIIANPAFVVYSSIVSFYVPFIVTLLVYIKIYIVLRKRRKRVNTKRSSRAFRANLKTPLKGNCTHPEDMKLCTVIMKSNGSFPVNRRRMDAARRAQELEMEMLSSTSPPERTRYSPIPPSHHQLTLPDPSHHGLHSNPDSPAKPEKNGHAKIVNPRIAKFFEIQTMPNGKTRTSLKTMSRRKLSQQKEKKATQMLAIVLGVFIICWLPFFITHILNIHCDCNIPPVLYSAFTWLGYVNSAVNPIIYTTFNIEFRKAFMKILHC
# Method: 2. Dopamine D2 Receptor Binding Assay
# Rat striatum membrane was used as a receptor preparation.
# [^3H] raclopride was used as a [^3H]-labeled ligand.
# Preparation of the receptor preparation: Rat striatum was homogenized in 50 mM Tris-hydrochloric acid buffer (pH 7.4), and the homogenate was centrifuged at 48,000×g and the pellet was washed once with Tris-hydrochloric acid buffer. The washed pellet was suspended in 50 mM Tris-hydrochloric acid buffer (pH 7.4) containing 120 mM sodium chloride, 5 mM potassium chloride, 2 mM calcium chloride and 1 mM magnesium chloride, to obtain a membrane preparation.
# Dopamine D2 receptor binding assay: The membrane preparation (0.5 mg protein/ml), [^3H] raclopride (1 nM) and each test drug were incubated at 25° C. for 1 hour.
# as §1
# Binding under the reaction of [^3H] raclopride carried out in the presence of 10 μM haloperidol was defined as nonspecific binding of [^3H] lacropirido, and the difference between the total binding and the nonspecific binding was defined as specific binding.
SMILES,IC50 [1] [nM],IC50 [2] [nM],melting point [°C]
"Nc1nc(-c2ccc(F)cc2)c(CCN2CCC(c3coc4cc(F)ccc34)CC2)s1 [B-01, 2-amino-4-(4-fluorophenyl)-5-[2-[4-(6-fluorobenzofuran-3-yl)piperidin-1-yl]ethyl]thiazole]",3.1,67.3,–
"Oc1nc(-c2ccc(F)cc2)c(CCN2CCC(c3coc4cc(F)ccc34)CC2)s1 [B-06, 2-hydroxy-4-(4-fluorophenyl)-5-[2-[4-(6-fluorobenzofuran-3-yl)piperidin-1-yl]ethyl]thiazole]",–,–,186 to 188
Nc1nc(-c2ccc(F)cc2)c(CCN2CCC(c3c[nH]c4ccccc34)CC2)s1 [B-09],2,81.1,203 to 203.5
Cc1nc(-c2ccc(F)cc2)c(CCN2CCC(c3c[nH]c4ccccc34)CC2)s1 [B-11],0.4,26.6,165 to 167
Nc1nc(-c2ccc(F)cc2)c(CCN2CCC(n3cnc4cc(F)ccc43)CC2)s1 [B-25],32,> 1000,282 to 284
"Nc1nc(-c2ccc(F)cc2)c(CCN2CCC(n3nnc4cc(F)ccc43)CC2)s1 [B-26, 2-amino-4-(4-fluorophenyl)-5-[2-[4-(5-fluoro-1H-benzotriazol-1-yl)piperidin-1-yl]ethyl]thiazole]",5.5,298,–
Cc1nc(-c2ccc(F)cc2)c(CCN2CCC(n3nnc4cc(F)ccc43)CC2)s1 [B-29],2.4,206,145 to 146
"CSc1nc(-c2ccc(F)cc2)c(CCN2CCC(n3nnc4cc(F)ccc43)CC2)[nH]1 [C-03, 2-methylthio-4-(4-fluorophenyl)-5-[2-[4-(5-fluoro-1H-benzotriazol-1-yl)piperidin-1-yl]ethyl]imidazole]",–,–,223 to 224
"Fc1ccc(-c2[nH]ncc2CCN2CCC(c3csc4cc(F)ccc34)CC2)cc1 [Example 10, 5-(4-fluorophenyl)-4-[2-[4-(6-fluorobenzo[b]thiophen-3-yl)piperidin-1-yl]ethyl]pyrazole]",–,–,162 to 163
"Fc1ccc(-c2ncncc2CCN2CCC(c3csc4cc(F)ccc34)CC2)cc1 [Example 11, 6-(4-fluorophenyl)-5-[2-[4-(6-fluorobenzo[b]thiophen-3-yl)piperidin-1-yl]ethyl]pyrimidine]",–,–,123 to 124

# Source: patent US6806275B2, “Arylpiperidine derivatives and use thereof” (Nihon Nohyaku Co., Ltd., priority 1998, dated 2004)
